According to patent publication US20050282863A1, “Novel-N substituted dihydrobenzothiepino, dihydrobenzoxepino and tetrahydro benzocyclohepta indoles as selective estrogen receptor modulators” (Council of Scientific & Industrial Research, priority 2004, published 2005):
Like-named read-outs stand apart in the source and are kept apart here.

Experiments:
[1] = system: MCF-7 cells; assay: Antiproliferative/cytotoxic activity in cultured MCF-7 cells (SRB assay); format: cell-based; conditions: Homo sapiens, MCF7, 48 h, MCF-7, 48 h
Protocol: The procedure is based on the following methods: New calorimetric assay for anticancer drug screening, Skehan et al., J Natn Cancer Inst, 82,1107, 1990 and Feasibility of a high-flux anticancer drug screen using a diverse panel of cultured human tumor cell lines, J Natn Cancer Inst, 83,757, 1991.
A fully confluent flask of MCF-7 cells in trypsinized and 10^4 cells/well are plated in a 96 welled flat bottomed plate in 200 μl Minimum Essential Medium (MEM), pH 7.4 and allowed to attach for 24 h at 37° C. in a humidified CO2 incubator. Subsequently, the compound of invention dissolved in DMSO or ethanol is added at a specified concentration and further incubated for 48 h as before. The cells are then fixed in 50 μl cold 50% TCA and incubated for 1 h at 4° C. The supernatant is discarded and the plate is washed five times with deionized water and air-dried. 100 μl of 0.4% (w/v) Sulforhodamine B (SRB) in 1% acetic acid is added to each well and incubated at room temperature for 30 minutes. Unbound SRB is removed by five washes with chilled 1% acetic acid and the plate is air-dried. 200 μl of unbuffered 10 mM Tris base is added to solublize the bound stain for 5 minutes at room temperature and O.D. is read at 560 nm in a plate reader. The graph is plotted between O.D. and concentration and LC50 is calculated with respect to tamoxifen, which is used as a positive control.

[2] = system: immature ovariectomized rats; assay: Estrogen agonistic activity: increase in uterine weight in immature ovariectomized rats; format: in vivo, rat; conditions: 3 days, percent of ovariectomized + vehicle group; for change in vivo at 3 mg/kg: daily dose 3 mg/kg

SMILES	CC50 ([1]; read-out: LC50, Test-1)	change in vivo at 1 mg/kg ([2]; Rattus norvegicus, 72 h, daily dose 1 mg/kg)	change in vivo at 3 mg/kg ([2]; Rattus norvegicus, 72 h)	Percent increase in uterine weight ([2]; daily dose 10 mg/kg)	CC50 ([1]; read-out: LC50, Test-3)	change in vivo at 10 mg/kg ([2]; Rattus norvegicus, 72 h, daily dose 10 mg/kg)
CCCCN(C)CCCCCn1c2c(c3ccccc31)CCSc1ccccc1-2 [Example number 13, 12-[5-(N-butylmethylamino)pentyl]-6,7-dihydro-12H-benzothiepino [5,4-b]indole]	24 µM	8%	2.53%	126.00%	–	–
c1ccc2c(c1)SCCc1c-2n(CCCCCCN2CCCCC2)c2ccccc12 [Example number 18, 12-[6-(Piperidine-1-yl)hexyl]-6,7-dihydro-12H-benzothiepino [5,4-b]indole]	18.2 µM	–	1.76%	–	9.63 µM	51%
